According to ChEMBL document CHEMBL5247627, “1-Methyl-3-((4-(quinolin-4-yloxy)phenyl)amino)-1H-pyrazole-4-carboxamide derivatives as new rearranged during Transfection (RET) kinase inhibitors capable of suppressing resistant mutants in solvent-front regions” (Eur J Med Chem, 2022):
pIC50: −log10 of the molar value. Calls of active or inactive are those of the source. No cut-off for these calls is given here.

Legend:
BaF3 [1] = assay: Induction of apoptosis in mouse BaF3 cells harbouring CCDC6-RET G810R assessed as late apoptotic cells measured at 100 nM for 48 hrs by Annexin V-FITC staining based Guava easyCyte flow cytometric analysis (reference value: 3.4 %); format: functional
BaF3 [2] = assay: Induction of apoptosis in mouse BaF3 cells harbouring CCDC6-RET G810C assessed as late apoptotic cells measured at 100 nM for 48 hrs by Annexin V-FITC staining based Guava easyCyte flow cytometric analysis (reference value: 2.65 %); format: functional
BaF3 [3] = assay: Induction of apoptosis in mouse BaF3 cells harbouring CCDC6-RET G810C assessed as necrotic cells measured at 33.3 nM for 48 hrs by Annexin V-FITC staining based Guava easyCyte flow cytometric analysis (reference value: 0.35 %); format: functional
BaF3 [4] = assay: Antiproliferative activity against mouse BaF3 cells expressing rearranged during transfection kinase G810R-CCDC6 incubated for 74 to 76 hrs by cell counting kit 8 method
BaF3 [5] = assay: Induction of apoptosis in mouse BaF3 cells harbouring CCDC6-RET G810R assessed as viable cells measured at 300 nM for 48 hrs by Annexin V-FITC staining based Guava easyCyte flow cytometric analysis (reference value: 89.5 %); format: functional; conditions: read-out: Activity
BaF3 [6] = assay: Induction of apoptosis in mouse BaF3 cells harbouring CCDC6-RET G810R assessed as early apoptotic cells measured at 33.3 nM for 48 hrs by Annexin V-FITC staining based Guava easyCyte flow cytometric analysis (reference value: 6.46 %); format: functional
BaF3 [7] = conditions: Mus musculus, dose 100.0 nM, time 4.0 hrs
BaF3 [8] = assay: Induction of apoptosis in mouse BaF3 cells harbouring CCDC6-RET G810C assessed as early apoptotic cells measured at 300 nM for 48 hrs by Annexin V-FITC staining based Guava easyCyte flow cytometric analysis (reference value: 6.10 %); format: functional
BaF3 [9] = assay: Antitumor activity against mouse BaF3 cells harbouring CCDC6-RET G810C cells xenografted in CB17-SCID mouse assessed as reduction in tumor growth at 30 mg/kg ip qd administered for 12 days measured every 2 days relative to control; format: functional; conditions: BaF3, 288 h, time 12 day, read-out: TGI
BaF3 [10] = assay: Induction of apoptosis in mouse BaF3 cells harbouring CCDC6-RET G810R assessed as necrotic cells measured at 33.3 nM for 48 hrs by Annexin V-FITC staining based Guava easyCyte flow cytometric analysis (reference value: 0.64 %); format: functional
BaF3 [11] = assay: Antiproliferative activity against mouse BaF3 cells expressing rearranged during transfection kinase G810C-CCDC6 incubated for 74 to 76 hrs by cell counting kit 8 method
BaF3 [12] = assay: Induction of apoptosis in mouse BaF3 cells harbouring CCDC6-RET G810C assessed as late apoptotic cells measured at 300 nM for 48 hrs by Annexin V-FITC staining based Guava easyCyte flow cytometric analysis (reference value: 2.65 %); format: functional
BaF3 [13] = assay: Induction of apoptosis in mouse BaF3 cells harbouring CCDC6-RET G810C assessed as viable cells measured at 300 nM for 48 hrs by Annexin V-FITC staining based Guava easyCyte flow cytometric analysis (reference value: 90.90 %); format: functional; conditions: read-out: Activity
BaF3 [14] = assay: Induction of apoptosis in mouse BaF3 cells harbouring CCDC6-RET G810C assessed as necrotic cells measured at 300 nM for 48 hrs by Annexin V-FITC staining based Guava easyCyte flow cytometric analysis (reference value: 0.35 %); format: functional
BaF3 [15] = assay: Induction of apoptosis in mouse BaF3 cells harbouring CCDC6-RET G810R assessed as late apoptotic cells measured at 33.3 nM for 48 hrs by Annexin V-FITC staining based Guava easyCyte flow cytometric analysis (reference value: 3.4 %); format: functional

Compound: COc1cc2nccc(Oc3ccc(Nc4nn(C)cc4C(=O)NC45CC6CC(CC(C6)C4)C5)c(F)c3)c2cc1C(N)=O
- Activity (BaF3 [1]): 1.8%
- Activity (BaF3 [2]): 2.39%
- Activity (BaF3 [3]): 0.28%
- pIC50 (BaF3 [4]): 7.27
- viability at 0.3 µM (BaF3 [5]): 63.9%
- Activity (BaF3 [6]): 6.47%
- inhibition (BaF3 [7]): Active
- Activity (BaF3 [8]): 53.4%
- inhibition in vivo at 30 mg/kg (BaF3 [9]): 66.9%
- Activity (BaF3 [10]): 0.17%
- pIC50 (BaF3 [11]): 7.81
- Activity (BaF3 [12]): 3.08%
- viability at 0.3 µM (BaF3 [13]): 43.1%
- Activity (BaF3 [14]): 0.41%
- Activity (BaF3 [15]): 2.25%
